Measured values reported in the supplement of paper PMC13380429.
Counter-ions that a name gives are not always drawn.

What was measured:
Details in all cases: 72 h
[1] = test system: HepG2; test: relative viability EC50 (midpoint between 100% and the lowest measured viability); higher = less toxic
[2] = test system: Calu-3; test: as above
[3] = test system: Vero E6; test: as above
[4] = test system: U2OS; test: as above
[5] = test system: Caco-2; test: as above
[6] = test system: HepG2; test: cell viability relative to DMSO; higher = less toxic
[7] = test system: Calu-3; test: as above
[8] = test system: Vero E6; test: as above
[9] = test system: U2OS; test: as above
[10] = test system: Caco-2; test: as above
[11] = test system: HepG2; test: drug sensitivity score (DSS) for viability; higher = more toxic; extreme values may be limits of the assay
[12] = test system: Calu-3; test: as above
[13] = test system: Vero E6; test: as above
[14] = test system: U2OS; test: as above
[15] = test system: Caco-2; test: as above

Row | SMILES | relative viability EC50 [1] [µM] | relative viability EC50 [2] [µM] | relative viability EC50 [3] [µM] | relative viability EC50 [4] [µM] | relative viability EC50 [5] [µM] | cell viability ([6]; 1 nM) [%] | cell viability ([6]; 10 nM) [%] | cell viability ([6]; 100 nM) [%] | cell viability ([6]; 1000 nM) [%] | cell viability ([6]; 10000 nM) [%] | cell viability ([7]; 1 nM) [%] | cell viability ([7]; 10 nM) [%] | cell viability ([7]; 100 nM) [%] | cell viability ([7]; 1000 nM) [%] | cell viability ([7]; 10000 nM) [%] | cell viability ([8]; 1 nM) [%] | cell viability ([8]; 10 nM) [%] | cell viability ([8]; 100 nM) [%] | cell viability ([8]; 1000 nM) [%] | cell viability ([8]; 10000 nM) [%] | cell viability ([9]; 1 nM) [%] | cell viability ([9]; 10 nM) [%] | cell viability ([9]; 100 nM) [%] | cell viability ([9]; 1000 nM) [%] | cell viability ([9]; 10000 nM) [%] | cell viability ([10]; 1 nM) [%] | cell viability ([10]; 10 nM) [%] | cell viability ([10]; 100 nM) [%] | cell viability ([10]; 1000 nM) [%] | cell viability ([10]; 10000 nM) [%] | drug sensitivity score [11] | drug sensitivity score [12] | drug sensitivity score [13] | drug sensitivity score [14] | drug sensitivity score [15]
1 | CC(C)c1c2cc(-c3ccnc(N[C@H]4CC[C@H](NC5CCOCC5)CC4)n3)ccc2nn1C | 0.18 | 0.719 | 2 | 0.851 | 0.589 | 98.9 | 101 | 83.2 | 10.1 | 9.8 | 105 | 107 | 108 | 60.3 | 43.3 | 93.8 | 96.7 | 88 | 86 | 4.7 | 99 | 95 | 99.8 | 42.8 | 4.6 | 94.6 | 96.6 | 94.8 | 53.6 | 31.3 | 19.1 | 7.7 | 7.6 | 12 | 9.6
2 | CCc1c(C(=O)NCCc2ccc(N3CCCCC3)cc2)[nH]c2ccc(Cl)cc12 | > 10 | > 10 | > 10 | > 10 | > 10 | 97.4 | 107 | 92.3 | 105 | 99.4 | 95.8 | 97.5 | 93.4 | 100 | 101 | 97.6 | 96.4 | 105 | 100 | 96 | 98 | 93.9 | 98.8 | 95.2 | 98.6 | 98.7 | 94 | 95.2 | 90.6 | 91 | 0 | 0 | 0 | 0 | 0
3 | CN(C)C(=O)n1nnnc1Cc1ccc(-c2ccccc2)cc1 | 3.19 | 3.91 | 3.32 | 3.44 | 3.62 | 125 | 108 | 110 | 100 | 43.3 | 102 | 98 | 95.2 | 111 | 44.9 | 107 | 106 | 103 | 102 | 29.1 | 102 | 105 | 102 | 104 | 13.6 | 106 | 106 | 100 | 106 | 40.1 | 3 | 2.3 | 3.7 | 4.5 | 2.8
4 | CNC(=O)Nc1ccc(-c2nc(N3CC4CCC(C3)O4)c3cnn(C4CCC5(CC4)OCCO5)c3n2)cc1 | 0.0648 | 0.0122 | 0.109 | – | 0.0381 | 98.6 | 97.6 | 47.1 | 31.2 | 20.8 | 94.2 | 67.2 | 36.7 | 28 | 30.7 | 94.1 | 93 | 70.1 | 43.8 | 36.4 | – | – | – | – | – | 111 | 85.1 | 50.6 | 32.3 | 33.1 | 20.8 | 25.1 | 14.1 | – | 19.5
5 | COC(=O)c1cnn(-c2ccc(F)cc2F)c1/C=N/NC(=S)NC(C)(C)C | > 10 | > 10 | > 10 | > 10 | > 10 | 112 | 107 | 98.4 | 94.3 | 105 | 101 | 101 | 97.4 | 89.1 | 89.6 | 106 | 101 | 95.9 | 96.1 | 98.8 | 98.6 | 98.3 | 104 | 98 | 103 | 102 | 90.6 | 102 | 105 | 93.9 | 0 | 0.3 | 0 | 0 | 0
6 | COc1cc(N)c(Cl)cc1C(=O)OCCN1CCCCC1 | > 10 | > 10 | > 10 | > 10 | > 10 | 112 | 96.9 | 106 | 94.9 | 103 | 93.8 | 108 | 102 | 103 | 102 | 96.3 | 97.3 | 98.7 | 99.3 | 99.5 | 93.9 | 99 | 95.5 | 100 | 108 | 88.3 | 97.6 | 86 | 100 | 110 | 0 | 0 | 0 | 0 | 0
7 | COc1ccc(CN2C(=O)C(=O)c3cc(OC(F)(F)F)ccc32)cc1 | 3.43 | 1.43 | 1.75 | 0.374 | 1.66 | 97.7 | 108 | 109 | 103 | 41.8 | 98.3 | 96.7 | 110 | 83 | 41.7 | 107 | 107 | 103 | 86 | 28.8 | 99 | 99.7 | 92.8 | 25.8 | 13.4 | 90.2 | 100 | 89.8 | 85.5 | 38.8 | 2.9 | 5.7 | 6.2 | 14.6 | 5.4
8 | Cc1cccc(Oc2nc3c(C)cccn3c(=O)c2/C=C(\C#N)c2nc3ccccc3s2)c1 | > 10 | > 10 | > 10 | > 10 | > 10 | 100 | 90.2 | 101 | 94.6 | 100 | 97 | 94.1 | 98.6 | 102 | 112 | 103 | 95.5 | 99.4 | 91.4 | 106 | 95.2 | 99.1 | 96 | 102 | 106 | 93.1 | 98.3 | 98.3 | 94 | 98.6 | 0 | 0 | 0 | 0 | 0
9 | Cc1ccccc1N1CCN(S(=O)(=O)C[C@]23CC[C@H](C[C@@H]2NC(=O)[C@@H](N)CCS(C)(=O)=O)C3(C)C)CC1 | > 10 | > 10 | > 10 | > 10 | > 10 | 109 | 94.7 | 107 | 111 | 108 | 98.2 | 103 | 94.3 | 105 | 99.5 | 101 | 93.8 | 98 | 87.6 | 110 | 95.3 | 96.4 | 95.8 | 101 | 103 | 97.5 | 93.3 | 90 | 108 | 96.5 | 0 | 0 | 0 | 0 | 0
10 | O=C(Nc1cccc(Cl)c1)c1ccccn1 | > 10 | > 10 | > 10 | > 10 | > 10 | 111 | 100 | 105 | 97.3 | 107 | 94.5 | 95.8 | 95.9 | 114 | 102 | 107 | 102 | 107 | 99.3 | 103 | 102 | 104 | 99.8 | 108 | 101 | 87.9 | 102 | 98 | 96.8 | 102 | 0 | 0 | 0 | 0 | 0
11 | O=C1NN(C(=O)Nc2ccc(Br)cc2)[C@@H](c2ccccc2)[C@@H]1c1ccccc1 | > 10 | > 10 | – | > 10 | > 10 | 104 | 89.3 | 91.1 | 106 | 89.1 | 96.5 | 90.4 | 93.8 | 91.2 | 86 | – | – | – | – | – | 97.3 | 95.4 | 98.5 | 94.8 | 101 | 103 | 98.8 | 100 | 98.6 | 96.7 | 0 | 0.3 | – | 0 | 0
12 | N=C(N)Nc1ccc(Cl)cc1 [4-chlorophenylguanidine] | > 10 | > 10 | – | > 10 | > 10 | 99.6 | 99.2 | 107 | 115 | 93.2 | 93 | 89.4 | 94.6 | 91.7 | 102 | – | – | – | – | – | 102 | 95.9 | 99.7 | 96.5 | 101 | 103 | 100 | 97 | 95.1 | 95.6 | 0 | 0 | – | 0 | 0
13 | Nc1nc(NC2CC2)c2ncn([C@H]3C=C[C@@H](CO)C3)c2n1 [ABACAVIR SULFATE] | > 10 | > 10 | – | > 10 | > 10 | 101 | 95.2 | 97.7 | 90.3 | 96 | 89.4 | 96.3 | 97.7 | 100 | 97.1 | – | – | – | – | – | 99.9 | 102 | 97.1 | 106 | 99.7 | 102 | 104 | 94.3 | 98.4 | 95.1 | 0 | 0 | – | 0 | 0
14 | O=C(/C=C/c1ccc2ccccc2n1)c1ccncc1 [PFK-015] | 1.99 | – | 2.68 | 2.69 | 2.09 | 106 | 89.6 | 110 | 85 | 0.1 | 107 | 105 | 88 | 97 | 59.2 | 101 | 94.9 | 98 | 94.1 | 4.2 | 93 | 94.8 | 95.4 | 94 | 0 | 93.3 | 96.3 | 95.8 | 90.6 | 29.7 | 8 | 2.5 | 6.2 | 6.4 | 5.5
